Values joined by “and” are separate entries in the source; they are usually repeats but may differ in a detail not shown here. Equal values may be shown once.
Tests used:
[1] = for vapor or sublimation pressure: Closed cell (Static) method
[2] = Molar enthalpy of transition or fusion; conditions: Crystal; DSC
[3] = molar heat capacity at constant pressure; conditions: 101.33 kPa, Extra sensitive DSC

O=C1OCCO1 [ethylene carbonate]
Conditions | Normal melting temperature [°C] | molar heat capacity at constant pressure [J/K/mol] | vapor or sublimation pressure
[1], 272.67 K, Crystal | – | – | 0.00025 kPa
[1], 272.74 K, Crystal | – | – | 0.00026 kPa
[1], 272.8 K, Crystal | – | – | 0.00025 kPa
[1], 272.88 K, Crystal | – | – | 0.00025 kPa
[1], 278.16 K, Crystal | – | – | 0.00051 kPa and 0.00049 kPa
[1], 278.17 K, Crystal | – | – | 0.00049 kPa
[1], 283.05 K, Crystal | – | – | 0.00087 kPa and 0.00088 kPa and 0.00086 kPa
[1], 288.1 K, Crystal | – | – | 0.00154 kPa and 0.00152 kPa and 0.00151 kPa
[1], 292.98 K, Metastable liquid | – | – | 0.0034 kPa and 0.00338 kPa
[1], 293 K, Metastable liquid | – | – | 0.00341 kPa
[1], 293.01 K, Crystal | – | – | 0.00258 kPa and 0.00256 kPa
[1], 293.02 K, Crystal | – | – | 0.00254 kPa and 0.00256 kPa
[1], 297.98 K, Crystal | – | – | 0.00431 kPa and 0.0043 kPa
[1], 297.99 K, Crystal | – | – | 0.00431 kPa
[1], 297.99 K, Metastable liquid | – | – | 0.00518 kPa and 0.0052 kPa and 0.00521 kPa
[1], 298 K, Metastable liquid | – | – | 0.0052 kPa
[1], 302.82 K, Crystal | – | – | 0.00702 kPa and 0.00697 kPa
[1], 302.83 K, Crystal | – | – | 0.00701 kPa
[1], 302.92 K, Metastable liquid | – | – | 0.0078 kPa and 0.00783 kPa
[1], 307.84 K, Crystal | – | – | 0.01131 kPa
[1], 307.84 K, Metastable liquid | – | – | 0.01153 kPa and 0.01158 kPa and 0.01159 kPa
[1], 307.85 K, Crystal | – | – | 0.01133 kPa and 0.0113 kPa
[1], 307.85 K, Metastable liquid | – | – | 0.01159 kPa
[1], 312.82 K, Liquid | – | – | 0.01692 kPa and 0.01693 kPa
[1], 312.83 K, Liquid | – | – | 0.01694 kPa
[1], 317.76 K, Liquid | – | – | 0.02435 kPa
[1], 317.77 K, Liquid | – | – | 0.02435 kPa and 0.02433 kPa
[1], 322.65 K, Liquid | – | – | 0.03439 kPa and 0.03437 kPa
[1], 322.66 K, Liquid | – | – | 0.03443 kPa
[1], 327.75 K, Liquid | – | – | 0.04874 kPa and 0.04875 kPa
[1], 327.76 K, Liquid | – | – | 0.04872 kPa
[1], 327.77 K, Liquid | – | – | 0.04878 kPa
[1], 332.8 K, Liquid | – | – | 0.06796 kPa and 0.06798 kPa and 0.06797 kPa
[1], 337.66 K, Liquid | – | – | 0.09261 kPa
[1], 337.67 K, Liquid | – | – | 0.09259 kPa and 0.09267 kPa
[1], 337.68 K, Liquid | – | – | 0.09275 kPa
[1], 342.68 K, Liquid | – | – | 0.126 kPa
[1], 342.69 K, Liquid | – | – | 0.1261 kPa and 0.1262 kPa
[1], 342.7 K, Liquid | – | – | 0.1262 kPa
[1], 347.63 K, Liquid | – | – | 0.1694 kPa
[1], 347.65 K, Liquid | – | – | 0.1695 kPa
[1], 347.66 K, Liquid | – | – | 0.1696 kPa
[1], 352.45 K, Liquid | – | – | 0.2235 kPa
[1], 352.46 K, Liquid | – | – | 0.2236 kPa
[1], 352.47 K, Liquid | – | – | 0.2238 kPa
[1], 352.49 K, Liquid | – | – | 0.2241 kPa
[1], 357.49 K, Liquid | – | – | 0.296 kPa
[1], 357.5 K, Liquid | – | – | 0.2961 kPa and 0.2962 kPa and 0.2963 kPa
[1], 362.62 K, Liquid | – | – | 0.3906 kPa
[1], 362.63 K, Liquid | – | – | 0.3906 kPa and 0.3907 kPa
[1], Crystal, DTA | 35.98 | – | –
[3], 262.19 K, Crystal | – | 101.89 | –
[3], 264 K, Crystal | – | 102.85 | –
[3], 266 K, Crystal | – | 104 | –
[3], 268 K, Crystal | – | 105.06 | –
[3], 270 K, Crystal | – | 106.2 | –
[3], 272 K, Crystal | – | 107.35 | –
[3], 274 K, Crystal | – | 108.49 | –
[3], 276 K, Crystal | – | 109.72 | –
[3], 278 K, Crystal | – | 110.87 | –
[3], 280 K, Crystal | – | 112.1 | –
[3], 282 K, Crystal | – | 113.33 | –
[3], 284 K, Crystal | – | 114.57 | –
[3], 286 K, Crystal | – | 115.8 | –
[3], 288 K, Crystal | – | 117.03 | –
[3], 290 K, Crystal | – | 118.26 | –
[3], 292 K, Crystal | – | 119.59 | –
[3], 294 K, Crystal | – | 120.91 | –
[3], 295.68 K, Crystal | – | 121.96 | –
[3], 316.43 K, Liquid | – | 139.49 | –
[3], 317 K, Liquid | – | 139.58 | –
[3], 318 K, Liquid | – | 139.75 | –
[3], 319 K, Liquid | – | 139.84 | –
[3], 320 K, Liquid | – | 140.02 | –
[3], 321 K, Liquid | – | 140.1 | –
[3], 322 K, Liquid | – | 140.28 | –
[3], 323 K, Liquid | – | 140.37 | –
[3], 323.6 K, Liquid | – | 140.46 | –

Conditions | Molar enthalpy of transition or fusion [kcal/mol]
[2] | 3.23

Source: the NIST ThermoML archive (doi:10.1021/acs.jced.7b00578)
